In brackets after ≈: the same amount, converted by molar mass.
Key:
cucumber [1] = experiment: Toxicity in gray mold prevention test on cucumber; type: in vivo, cucumber (variety: Sagamihanjiro)
Procedure: (§1) Onto 1.5 leaf-stage cucumber (variety: Sagamihanjiro) which had been grown in a 7 cm-diameter pot was sprayed, using a spray gun, a drug solution produced by diluting an emulsifiable concentrate containing the present compound with water to the predetermined concentration, at 10 ml per pot.
(§2) On the following day, the first leaf on which was sprayed the drug solution was plucked off, and onto the surface of the leaf was inoculated a mycelia disk which had been prepared from the tip of a cell cluster of Botrytis cinerea cultured at 20° C. for 2 days in a PSA (potato sucrose agar) medium using a 4 mm-diameter cork borer. Then, the cucumber leaf was allowed to stand for 5 days at 20° C. in a moist chamber, the diameter of the diseased spots which formed were measured, and the degree of control was determined according to the following equation. Here, iprodion (trade name: Lobral) was used as a control preparation.

Botrytis cinerea [2] = experiment: Test for controlling gray mold on cucumber (prevention test); type: in vivo; settings: (1-diameter treated/untreated)×100
Procedure: Test for Controlling Gray Mold (Botrytis cinerea) on Cucumber (Prevention Test)
as §1, §2
Preventive value=(1-diameter of disease spots of drug-treated group/diameter of disease spots of untreated group)×100

Sclerotinia sclerotiorum [3] = experiment: Test for controlling cucumber Sclerotinia rot (prevention test); type: in vivo; settings: Sclerotinia rot on cucumber, (1-diameter treated/untreated)×100
Procedure: Test for Controling Cucumber Sclerotinia Rot (Sclerotinia sclerotiorum) (Prevention Test)
as §1
(§3) On the following day, the first leaf on which was sprayed the drug solution was plucked off, and onto the surface of the leaf was inoculated a mycelia disk which had been prepared from the tip of a cell cluster of Sclerotinia sclerotiorum cultured at 20° C. for 1 day in a PSA medium by using a 4 mm-diameter cork borer. Then, the cucumber leaf was allowed to stand for 3 days at 20° C. in a moist chamber, the diameter of the disease spots which formed were measured measured, and the preventive value was determined according to the following equation.
Preventive value=(1-diameter of diseased spots of drug-treated group/diameter of disease spots of untreated group)×100

Botrytis cinerea [4] = experiment: Test for controlling gray mold on cucumber (curative test); type: in vivo; settings: (1-length treated/untreated)×100
Procedure: Test for Controling Gral Mold (Botrytis cinerea) on Cucumber (Curative Test)
The first leaf was plucked off from 1.5 leaf-sage cucumber (variety: Sgamihanjiro) which had been grown in a 7 cm-diameter pot, and a mycelia disk of Botrytis cinerea was inoculated in the same manner as in the Experiment 1. Then, the cucumber leaf was allowed to stand for 2 days at 20° C. in a moist chamber, and when the disease spots reached approximately […] in diameter, a drug solution produced by deluting an emulsion containing the present compound with water to the desired concentration was sprayed at 10 ml per leaf using a spray gun, and after drying in air the leaf was allowed to stand for 3 days at 20° C. in a moist chamber.
The lengths of the newly developed diseases spots were measured, and the preventive value was determined using the following equation.
Preventive value=(1-length of diseased spots of drug-treated group/length of diseased spots of untreated group)×100

cucumber [5] = experiment: Toxicity in Sclerotinia rot prevention test on cucumber; type: in vivo, cucumber (variety: Sagamihanjiro)
Procedure: as §1, §3

[6] = tested on: platelet aggregation (U46619); experiment: Anti-platelet aggregation effect, U46619-induced; type: cell-based, Hartley male guinea-pigs; settings: Cavia porcellus; U46619 0.5 μM; guinea-pig platelet rich plasma, 37° C., 0.5% DMSO
Procedure: (§4) Blood was collected from the abdominal artery of Hartley male guinea-pigs (weight: about 300 g) into a syringe containing 1/10 volume 3.8% sodium citrate. The blood thus obtained was subjected to a centrifugation at 160×g for 10 minutes at room temperature to obtain platelet rich plasma (PRP). Furthermore, the residue was subjected to a centrifugation at 1500×g for 15 minutes to obtain platelet poor plasma (PPP). The measurement was carried out by diluting PRP with PPP to 300,000/mm^3. The measurement range of transmittance was adjusted to 0% in the case of PRP and to 100% in the case of PPP. Thereafter, a test compound dissolved in 100% dimethylsulfoxide (DMSO) was added to PRP (the final concentration of DMSO: 0.5%). After incubation at 37° C., 1000 rpm for 2 minutes, an aggregating agent was added to measure an aggregation curve. The anti-platelet aggregation effect of the test compound was expressed by a concentration (IC50 :μM) at which the aggregation of control was 50% inhibited. The aggregating agents used were ADP (the final concentration: 5 μM), collagen (the final concentration: 2 μg/ml) and U46619 (the final concentration: 0.5 μM). The measurement of platelet aggregation was carried out using NBS HEMA Tracer 601.

[7] = tested on: platelet aggregation (collagen); experiment: Anti-platelet aggregation effect, collagen-induced; type: cell-based, Hartley male guinea-pigs; settings: Cavia porcellus; collagen 2 μg/ml; guinea-pig platelet rich plasma, 37° C., 0.5% DMSO
Procedure: as §4

[8] = tested on: platelet aggregation (ADP); experiment: Anti-platelet aggregation effect, ADP-induced; type: cell-based, Hartley male guinea-pigs; settings: Cavia porcellus; ADP 5 μM; guinea-pig platelet rich plasma, 37° C., 0.5% DMSO
Procedure: as §4

Rhynchosporium secalis = experiment: Minimum growth inhibition concentration, agar plate dilution method; type: cell-based
Text: (§5) The measurement of the minimum growth inhibition concentration (MIC) was made following the agar plate dilution method using an agar medium containing the compound A.

Botrytis cinerea [9] = experiment: as above; type: cell-based
Text: as §5

Sclerotinia cinerea = experiment: as above; type: cell-based
Text: as §5

Aspergillus nigar = experiment: as above; type: cell-based
Text: as §5

Sclerotinia sclerotiorum [10] = experiment: as above; type: cell-based
Text: as §5

Solubility in solvents = type: physicochemical

| SMILES | Toxicity (cucumber [1]; 25 ppm spraying) | Toxicity (cucumber [1]; 50 ppm spraying) | Toxicity (cucumber [1]; 100 ppm spraying) | Preventive value (Botrytis cinerea [2]; 25 ppm spraying) | Preventive value (Botrytis cinerea [2]; 50 ppm spraying) | Preventive value (Botrytis cinerea [2]; 100 ppm spraying) | Preventive value (Botrytis cinerea [4]; 50 ppm spraying) | Preventive value (Botrytis cinerea [4]; 100 ppm spraying) | also measured |
| --- | --- | --- | --- | --- | --- | --- | --- | --- | --- |
| CC(C)NC(=O)N1CC(=O)N(c2cc(Cl)cc(Cl)c2)C1=O [Iprodion, iprodion, reference compound] | none | none | none | 25 | 95 | 100 | 70 | 75 | Preventive value (Sclerotinia sclerotiorum [3]; 50 ppm spraying): 100; Preventive value (Sclerotinia sclerotiorum [3]; 100 ppm spraying): 100; Toxicity (cucumber [5]; 50 ppm spraying): none; Toxicity (cucumber [5]; 100 ppm spraying): none |
| CCCCC1CC2=C(C(=O)OC2=O)C(C(O)CCCC)CC2=C1C(=O)OC2=O (stereo not drawn) [Compound A] | none | none | none | 100 | 100 | 100 | 73 | 79 | IC50 [6]: 484 µM; IC50 [7]: 42 µM; IC50 [8]: 187 µM; MIC (Rhynchosporium secalis): 1.56 µg/mL (≈ 4 µM); MIC (Botrytis cinerea [9]): 0.78 µg/mL (≈ 2 µM); MIC (Sclerotinia cinerea): 3.13 µg/mL (≈ 8.02 µM); MIC (Aspergillus nigar): 3.13 µg/mL (≈ 8.02 µM); MIC (Sclerotinia sclerotiorum [10]): 1.56 µg/mL (≈ 4 µM); Solubility in solvents (Solubility in solvents; chloroform, ethyl acetate, methanol): readily soluble; Solubility in solvents (Solubility in solvents; water): sparingly soluble |

Reference: patent US5346919A, “Anti-bacterial substances and microorganisms which produce them” (Nissan Chemical Industries, Ltd., priority 1992, dated 1994)
